From patent publication US12474342B2, “Methods for treating cancer and the use of biomarkers as a predictor of clinical sensitivity to therapies” (CELGENE CORPORATION, priority 2016, dated 2025)
Marks after values point to notes of the source that are not given here.

Tests used:
GSPT1 [1] = molecular target: T1, GSPT1 (Homo sapiens, UniProt P15170+Q96SW2); assay: GSPT1 protein reduction, western analysis, OCI-AML3; assay type: cell-based; parameters: reduction in GSPT1 protein level was evaluated in human normal PBMCs; endogenous in cells; host or cells: primary PBMCs from normal donors (ID 4328, 4379) and AML patients (ID 11SH, 09P6)
Protocol: (§1) The reduction in the level of GSPT1 protein was concentration-dependent over the range of 3 to 1000 nM in eight of the nine AML cell lines and over the range of 300 to 1000 nM in one relatively insensitive AML cell line. The time course of the reduction in GSPT1 by Compound D also was studied for up to 48 hours. The progressive degradation of GSPT1 over the course of 1 to 20 hours was evident in the presence of all concentrations of Compound D studied from 3 to 300 nM in HNT-34, HL-60, and ML-2 cells, with little GSPT1 remaining by 20 hours at 100 or 300 nM Compound D in HNT-34 or HL-60 cells (FIG. 34 and FIG. 35C). Time-dependent reduction in GSPT1 was also observed in KG-1 and OCI-AML2 cells at 3 to 1000 nM Compound D, with little GSPT1 remaining in KG-1 cells at 100 to 300 nM at 24 hours or in OCI-AML2 cells at 300 and 1000 nM at 24 hours (FIG. 35D). Loss of GSPT1 occurred more slowly in Kasumi-1, AML-193, and F36-P cells.
Compound D-mediated GSPT1 reduction at 8 hours was compared to induction of caspase 3/7 activation (apoptosis) at 12, 24, and 48 hour time points in these nine AML cell lines. […] A positive association (r^2=0.50; R=0.71; p value=4.86E-002) was observed between the level of GSPT1 reduction and apoptosis induction in the AML cell panel (FIG. 36), with >90% GSPT1 reduction correlating with induction of apoptosis.

ATF4 = ATF4 protein induction, western blot, HNT-34; assay type: cell-based, human; details: HNT-34, 10 nM Compound D
Protocol: The time course of GSPT1 degradation was monitored by western blot analysis of HNT-34 AML cells and normal PBMCs (FIGS. 32A-32D) following incubation with Compound D (1, 10, and 100 nM).

GSPT1 [2] = molecular target: T1, GSPT1; assay: GSPT1 protein reduction, western analysis, HL-60; assay type: cell-based; parameters: reduction in GSPT1 protein level was evaluated in human normal PBMCs; endogenous in cells; host or cells: primary PBMCs from normal donors (ID 4328, 4379) and AML patients (ID 11SH, 09P6)
Protocol: as §1, with “FIG. 30C [HL-60])” for “The reduction in the level of GSPT1 protein was concentration-dependent over the range of 3 to 1000 nM in eight of the nine AML cell lines”, “48-hour (FIG. 30B [KG-1]; FIG. 30D [HL-60]) time points. […]” for “over the range of 300 to 1000 nM in one relatively insensitive AML cell line.”, “F36-P” left out, “cells. […] A positive association (r^2=0.50; […]” for “cells.”

GSPT1 [3] = molecular target: T1, GSPT1; assay: GSPT1 protein reduction, western analysis, Kasumi-1; assay type: cell-based; parameters: reduction in GSPT1 protein level was evaluated in human normal PBMCs; endogenous in cells; host or cells: primary PBMCs from normal donors (ID 4328, 4379) and AML patients (ID 11SH, 09P6)
Protocol: as §1, with “The” for “The reduction in the level of GSPT1 protein was concentration-dependent over the range of 3 to 1000 nM in eight of the nine AML cell lines and over the range of 300 to 1000 nM in one relatively insensitive AML cell line. The”, “F36-P” left out, “cells. […] A positive association (r^2=0.50; […]” for “cells.”

T1 sequence (P15170 1-637 isoform P15170-3): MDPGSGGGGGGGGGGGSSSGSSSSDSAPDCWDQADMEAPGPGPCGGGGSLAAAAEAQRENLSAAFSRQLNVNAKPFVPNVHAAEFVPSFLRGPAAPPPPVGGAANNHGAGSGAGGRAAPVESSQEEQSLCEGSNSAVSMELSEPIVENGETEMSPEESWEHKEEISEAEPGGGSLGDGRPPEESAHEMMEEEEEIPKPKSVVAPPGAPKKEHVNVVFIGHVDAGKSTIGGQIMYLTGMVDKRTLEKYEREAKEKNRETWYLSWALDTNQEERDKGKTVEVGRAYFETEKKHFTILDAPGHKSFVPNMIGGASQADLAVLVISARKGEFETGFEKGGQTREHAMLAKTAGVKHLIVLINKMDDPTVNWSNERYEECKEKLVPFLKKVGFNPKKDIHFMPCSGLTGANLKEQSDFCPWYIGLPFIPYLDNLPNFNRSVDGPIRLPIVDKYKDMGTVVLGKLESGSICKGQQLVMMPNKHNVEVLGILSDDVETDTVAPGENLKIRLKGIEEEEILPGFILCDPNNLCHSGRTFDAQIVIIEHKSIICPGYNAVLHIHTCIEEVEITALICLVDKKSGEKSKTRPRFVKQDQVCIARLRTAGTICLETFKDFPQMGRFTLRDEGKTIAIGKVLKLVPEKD
T1 sequence (Q96SW2 whole entry): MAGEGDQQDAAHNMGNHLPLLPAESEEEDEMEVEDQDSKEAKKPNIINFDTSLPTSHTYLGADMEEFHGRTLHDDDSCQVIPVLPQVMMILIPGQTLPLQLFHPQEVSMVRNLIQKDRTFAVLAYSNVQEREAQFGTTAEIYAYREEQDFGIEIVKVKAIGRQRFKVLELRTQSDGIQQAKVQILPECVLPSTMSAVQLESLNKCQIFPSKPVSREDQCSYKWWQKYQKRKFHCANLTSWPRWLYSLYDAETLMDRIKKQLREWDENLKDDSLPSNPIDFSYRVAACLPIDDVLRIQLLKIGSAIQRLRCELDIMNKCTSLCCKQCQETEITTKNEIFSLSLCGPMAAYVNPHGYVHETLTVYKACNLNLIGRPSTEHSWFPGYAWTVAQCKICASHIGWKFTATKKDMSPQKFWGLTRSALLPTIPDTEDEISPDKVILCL
T1 sequence (Q16531 whole entry partner): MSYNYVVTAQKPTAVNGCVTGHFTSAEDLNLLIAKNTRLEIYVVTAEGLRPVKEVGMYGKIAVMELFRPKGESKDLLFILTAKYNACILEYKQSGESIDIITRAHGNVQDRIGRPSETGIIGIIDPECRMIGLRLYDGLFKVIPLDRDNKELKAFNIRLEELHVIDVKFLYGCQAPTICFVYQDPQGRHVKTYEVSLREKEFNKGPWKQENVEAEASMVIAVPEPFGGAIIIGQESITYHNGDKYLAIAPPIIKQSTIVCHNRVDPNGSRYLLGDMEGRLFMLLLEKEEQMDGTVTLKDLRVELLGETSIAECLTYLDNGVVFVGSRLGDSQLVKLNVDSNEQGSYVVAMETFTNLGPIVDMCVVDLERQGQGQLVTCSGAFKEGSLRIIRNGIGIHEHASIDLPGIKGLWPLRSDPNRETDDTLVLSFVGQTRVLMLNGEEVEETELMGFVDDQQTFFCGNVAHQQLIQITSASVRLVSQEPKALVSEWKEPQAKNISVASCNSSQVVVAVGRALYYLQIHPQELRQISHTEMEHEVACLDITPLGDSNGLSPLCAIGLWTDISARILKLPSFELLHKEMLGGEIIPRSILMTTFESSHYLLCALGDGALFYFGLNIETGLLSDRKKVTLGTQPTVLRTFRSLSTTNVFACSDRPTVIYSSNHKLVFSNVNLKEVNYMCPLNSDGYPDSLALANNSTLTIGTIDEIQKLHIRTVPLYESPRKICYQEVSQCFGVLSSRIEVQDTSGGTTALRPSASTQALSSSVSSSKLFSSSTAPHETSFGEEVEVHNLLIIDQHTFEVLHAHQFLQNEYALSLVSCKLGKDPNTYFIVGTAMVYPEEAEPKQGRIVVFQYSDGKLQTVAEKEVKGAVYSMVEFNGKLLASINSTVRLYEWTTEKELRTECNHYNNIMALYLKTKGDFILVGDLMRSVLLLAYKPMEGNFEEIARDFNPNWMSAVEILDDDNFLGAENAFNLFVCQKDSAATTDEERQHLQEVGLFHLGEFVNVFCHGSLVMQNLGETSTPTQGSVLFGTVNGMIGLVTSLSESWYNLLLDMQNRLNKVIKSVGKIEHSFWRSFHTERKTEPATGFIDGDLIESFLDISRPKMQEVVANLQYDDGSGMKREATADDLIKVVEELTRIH

SMILES: O=C1CCC(N2Cc3cc(CNC(=O)C(F)(F)c4ccc(Cl)cc4)ccc3C2=O)C(=O)N1 (stereo not drawn) [Compound D, 2-(4-chlorophenyl)-N-((2-(2,6-dioxopiperidin-3-yl)-1-oxoisoindolin-5-yl)methyl)-2,2-difluoroacetamide]
- Percent Reduction at 100 nM Compound D GSPTI (8 hr) (GSPT1 [1]; OCI-AML3, 100 nM, 8 hr, visual interpolation between 3 and 300 nM): ~30^b %
- GSPT1 reduction (GSPT1 [1]; OCI-AML3, 300 nM Compound D, 8 hours): 37%
- GSPT1 protein level (GSPT1 [1]; OCI-AML3, 4-hour exposure): barely changed
- loss of GSPT1 (GSPT1 [1]; OCI-AML3, 300 and 1000 nM, 24 and 48 hours): slight loss
- time of induction of ATF4 protein (ATF4): 8 h
- reduction of GSPT1 protein levels (GSPT1 [2]; HL-60, 100 nM Compound D, 4 hours): greater than 800
- reduction of GSPT1 (GSPT1 [2]; HL-60, >30 nM Compound D, 8 hours): complete reduction
- Percent Reduction at 100 nM Compound D GSPTI (8 hr) (GSPT1 [3]; Kasumi-1, 100 nM, 8 hr): 64%
- GSPT1 reduction (GSPT1 [3]; Kasumi-1, 300 nM Compound D, 8 hours): 51%
